Like-named read-outs stand apart in the source and are kept apart here.
Tests used:
[1] = test system: HEL cells; experiment: Cytotoxicity, minimum cytotoxic concentration (cell morphology) in HEL cells; conditions: minimum concentration causing microscopically detectable alteration of cell morphology
[2] = test system: varicella-zoster virus (VZV) strain Oka; experiment: Inhibition of plaque formation, VZV TK+ Oka, in HEL fibroblasts; format: cell-based; conditions: Human alphaherpesvirus 3, HEL, read-out: Antiviral activity EC50 VZV TK+ strain (OKA)
[3] = test system: TK− VZV strain 07-1; experiment: microbe, parasite or virus in culture; format: cell-based, varicella-zoster virus; conditions: Human alphaherpesvirus 3, HEL, read-out: Antiviral activity EC50 VZV TK− strain
[4] = test system: Vaccinia virus (strain Lederle, ATCC VR-118); experiment: microbe, parasite or virus in culture; format: cell-based; conditions: Orthopoxvirus vaccinia, HEL 299, 96 h, read-out: Antiviral activity EC50 Vaccinia virus
[5] = test system: HEL 299 cells; conditions: human
[6] = in vitro; conditions: human
[7] = test system: HEL cells; experiment: Cytostatic activity, inhibition of HEL cell growth (CC50); conditions: read-out: Cytotoxicity HEL cells CC50, concentration reducing cell viability/proliferation by 50%, 3 days
[8] = test system: human cytomegalovirus (HCMV) strain AD-169; experiment: Inhibition of virus-induced cytopathicity, HCMV AD-169, in HEL fibroblasts; format: cell-based; conditions: read-out: Antiviral activity EC50 HCMV AD-169 strain
[9] = test system: human cytomegalovirus (HCMV) strain Davis; experiment: Inhibition of virus-induced cytopathicity, HCMV Davis, in HEL fibroblasts; format: cell-based; conditions: read-out: Antiviral activity EC50 HCMV Davis strain
[10] = test system: human adeno virus-2 (clinical isolate C251085); experiment: Inhibition of virus-induced cytopathicity, human adeno virus-2, in HEL 299 cells; format: cell-based; conditions: Human mastadenovirus C, 240 h, 10 days, cytopathicity reduced by 50%, read-out: Antiviral activity EC50 Adenovirus 2
[11] = Human betaherpesvirus 5, AD169, HEL cells, reduction of virus-induced cytopathicity by 50%
[12] = Human betaherpesvirus 5, AD169, HEL

## Nc1nc2c(ncn2COCCO)c(=O)[nH]1 [Acyclovir, reference compound]
[1]; Table 1
  Cytotoxicity HEL cells MCC: >88.8
[1]; Table 2
  Cytotoxicity HEL cells MCC: >88.8

## O=c1[nH]c(=O)n([C@H]2C[C@H](O)[C@@H](CO)O2)cc1/C=C/Br [Brivudin, reference compound]
[2]
  EC50: 53 nM
[3]
  EC50: 22100 nM
[4]
  EC50: 5800 nM
[5]
  Cytotoxicity MCC: >250
[6]
  CC50 at 3 days: > 300 µM
[7]; Table 1
  CC50: > 300 µM
[1]; Table 1
  Cytotoxicity HEL cells MCC: >30.0
[1]; Table 2
  Cytotoxicity HEL cells MCC: >30.0

## Nc1ccn(C[C@@H](CO)OCP(=O)(O)O)c(=O)n1 [Cidofovir, reference compound]
[8]; [11]
  EC50: 1600 nM
[9]; Human betaherpesvirus 5, HEL cells, reduction of virus-induced cytopathicity by 50%
  EC50: 840 nM
[4]
  EC50: 50000 nM
[10]
  EC50: 10000 nM
[5]
  Cytotoxicity MCC: >250
[6]; HEL cells
  CC50 at 3 days: > 358 µM
[7]; Table 1
  CC50: > 358 µM
[1]; Table 1
  Cytotoxicity HEL cells MCC: >71.6
[1]; Table 2
  Cytotoxicity HEL cells MCC: >71.6

## CCCCCOC(=O)C[C@H](NP1(=O)CO[C@@H](Cn2cnc3c(N)ncnc32)CO1)C(=O)OCCCCC (stereo partly drawn) [Example 8, Diamyl {(5S)-5-[(6-amino-9H-purin-9-yl)methyl]-2-oxido-1,4,2-dioxaphosphinan-2-yl}-L-aspartate]
[2]
  EC50: 1.4 nM
[3]
  EC50: 1.5 nM
[8]; [12]
  EC50: 27 nM
[9]; Human betaherpesvirus 5, HEL
  EC50: 9 nM
[4]
  EC50: 77 nM
[10]
  EC50: 183 nM
[5]
  Cytotoxicity MCC: ≥20
[6]
  CC50 at 3 days: 2.73 µM
[1]; Table 1
  Cytotoxicity HEL cells MCC: 13.6
[1]; Table 2
  Cytotoxicity HEL cells MCC: 13.6

## CCCCCOC(=O)C[C@H](NP1(=O)CO[C@H](Cn2cnc3c(N)ncnc32)CO1)C(=O)OCCCCC (stereo partly drawn) [Example 9, Diamyl {(5R)-5-[(6-amino-9H-purin-9-yl)methyl]-2-oxido-1,4,2-dioxaphosphinan-2-yl}-L-aspartate]
[2]
  EC50: 33 nM
[3]
  EC50: 62 nM
[8]; [12]
  EC50: 4390 nM
[9]; Human betaherpesvirus 5, HEL
  EC50: 1620 nM
[6]
  CC50 at 3 days: 11.6 µM
[1]; Table 1
  Cytotoxicity HEL cells MCC: >18.5
[1]; Table 2
  Cytotoxicity HEL cells MCC: >18.5

## CCCCCOC(=O)C[C@H](NP1(=O)CO[C@@H](Cn2ccc(N)nc2=O)CO1)C(=O)OCCCCC (stereo partly drawn) [Example 10, Diamyl {(5S)-5-[(4-amino-2-oxopyrimidin-1(2H)-yl)methyl]-2-oxido-1,4,2-dioxaphosphinan-2-yl}-L-aspartate]
[2]
  EC50: 5.5 nM
[3]
  EC50: 6.3 nM
[8]; [12]
  EC50: 12 nM
[9]; Human betaherpesvirus 5, HEL
  EC50: 19 nM
[6]; HEL cells
  CC50 at 3 days: 33.1 µM
[1]; Table 1
  Cytotoxicity HEL cells MCC: 19.4
[1]; Table 2
  Cytotoxicity HEL cells MCC: 19.4

## CCCCCOC(=O)C[C@H](NP1(=O)CO[C@H](Cn2ccc(N)nc2=O)CO1)C(=O)OCCCCC (stereo partly drawn) [Example 11, Diamyl {(5R)-5-[(4-amino-2-oxopyrimidin-1(2H)-yl)methyl]-2-oxido-1,4,2-dioxaphosphinan-2-yl}-L-aspartate]
[2]
  EC50: 810 nM
[3]
  EC50: 1240 nM
[8]; [12]
  EC50: 2680 nM
[9]; Human betaherpesvirus 5, HEL
  EC50: 3530 nM
[6]; HEL cells
  CC50 at 3 days: > 194 µM
[7]; Table 2
  CC50: > 194 µM
[1]; Table 1
  Cytotoxicity HEL cells MCC: >19
[1]; Table 2
  Cytotoxicity HEL cells MCC: >19

## CCCCCOC(=O)[C@H](Cc1ccccc1)NP1(=O)CO[C@@H](Cn2cnc3c(N)ncnc32)CO1 (stereo partly drawn) [Example 12, Amyl ((5S)-5-((6-amino-9H-purin-9-yl)methyl)-2-oxido-1,4,2-dioxaphosphinan-2-yl)-L-phenylalaninate]
[2]
  EC50: 0.52 nM
[3]
  EC50: 3.2 nM
[8]; [12]
  EC50: 31 nM
[9]; Human betaherpesvirus 5, HEL
  EC50: 17 nM
[6]
  CC50 at 3 days: 30.6 µM
[1]; Table 1
  Cytotoxicity HEL cells MCC: 9.3
[1]; Table 2
  Cytotoxicity HEL cells MCC: 9.3

## CCCCCOC(=O)[C@H](CCSC)NP1(=O)CO[C@@H](Cn2cnc3c(N)ncnc32)CO1 (stereo partly drawn) [Example 13, Amyl ((5S)-5-((6-amino-9H-purin-9-yl)methyl)-2-oxido-1,4,2-dioxaphosphinan-2-yl)-L-methioninate]
[2]
  EC50: 2.6 nM
[3]
  EC50: 4 nM
[8]; [12]
  EC50: 32 nM
[9]; Human betaherpesvirus 5, HEL
  EC50: 29 nM
[6]
  CC50 at 3 days: 39.6 µM
[1]; Table 1
  Cytotoxicity HEL cells MCC: 4.11
[1]; Table 2
  Cytotoxicity HEL cells MCC: 4.11

## CCCCCOC(=O)[C@H](C)NP1(=O)CO[C@@H](Cn2cnc3c(N)ncnc32)CO1 (stereo partly drawn) [Example 14, Amyl ((5S)-5-((6-amino-9H-purin-9-yl)methyl)-2-oxido-1,4,2-dioxaphosphinan-2-yl)-L-alaninate]
[2]
  EC50: 2 nM
[3]
  EC50: 4.3 nM
[8]; [12]
  EC50: 64 nM
[9]; Human betaherpesvirus 5, HEL
  EC50: 65 nM
[6]
  CC50 at 3 days: 3.4 µM
[1]; Table 1
  Cytotoxicity HEL cells MCC: 23.5
[1]; Table 2
  Cytotoxicity HEL cells MCC: 23.5

## CCCCCOC(=O)CC[C@H](NP1(=O)CO[C@@H](Cn2cnc3c(N)ncnc32)CO1)C(=O)OCCCCC (stereo partly drawn) [Example 15, Diamyl {(5S)-5-[(6-amino-9H-purin-9-yl)methyl]-2-oxido-1,4,2-dioxaphosphinan-2-yl}-L-glutamate]
[2]
  EC50: 0.58 nM
[3]
  EC50: 0.95 nM
[8]; [12]
  EC50: 14 nM
[9]; Human betaherpesvirus 5, HEL
  EC50: 7.6 nM
[6]
  CC50 at 3 days: 0.52 µM
[1]; Table 1
  Cytotoxicity HEL cells MCC: 13.2
[1]; Table 2
  Cytotoxicity HEL cells MCC: 13.2

## CCCCCOC(=O)[C@@H](NP1(=O)CO[C@@H](Cn2cnc3c(N)ncnc32)CO1)C(C)C (stereo partly drawn) [Example 16, Amyl {(5S)-5-[(6-amino-9H-purin-9-yl)methyl]-2-oxido-1,4,2-dioxaphosphinan-2-yl}-L-valinate]
[2]
  EC50: 0.57 nM
[3]
  EC50: 1.5 nM
[8]; [12]
  EC50: 5.9 nM
[9]; Human betaherpesvirus 5, HEL
  EC50: 4.8 nM
[6]
  CC50 at 3 days: 7.76 µM
[1]; Table 1
  Cytotoxicity HEL cells MCC: 4.40
[1]; Table 2
  Cytotoxicity HEL cells MCC: 4.40

## CCCCCOC(=O)[C@H](CC(C)C)NP1(=O)CO[C@@H](Cn2cnc3c(N)ncnc32)CO1 (stereo partly drawn) [Example 17, Amyl {(5S)-5-[(6-amino-9H-purin-9-yl)methyl]-2-oxido-1,4,2-dioxaphosphinan-2-yl}-L-leucinate]
[2]
  EC50: 0.47 nM
[3]
  EC50: 0.59 nM
[8]; [12]
  EC50: 5.7 nM
[9]; Human betaherpesvirus 5, HEL
  EC50: 3.8 nM
[4]
  EC50: 77.5 nM
[10]
  EC50: 43.5 nM
[5]
  Cytotoxicity MCC: ≥0.8
[6]
  CC50 at 3 days: 1.62 µM
[1]; Table 1
  Cytotoxicity HEL cells MCC: 4.27
[1]; Table 2
  Cytotoxicity HEL cells MCC: 4.27

## CCCCCOC(=O)[C@@H](NP1(=O)CO[C@@H](Cn2cnc3c(N)ncnc32)CO1)[C@@H](C)CC (stereo partly drawn) [Example 18, Amyl {(5S)-5-[(6-amino-9H-purin-9-yl)methyl]-2-oxido-1,4,2-dioxaphosphinan-2-yl}-L-isoleucinate]
[2]
  EC50: 0.45 nM
[3]
  EC50: 0.54 nM
[8]; [12]
  EC50: 7 nM
[9]; Human betaherpesvirus 5, HEL
  EC50: 6.5 nM
[6]
  CC50 at 3 days: 12 µM
[1]; Table 1
  Cytotoxicity HEL cells MCC: 9.96
[1]; Table 2
  Cytotoxicity HEL cells MCC: 9.96

## CCCCCOC(=O)[C@@H](NP(=O)(CO[C@H](CO)Cn1cnc2c(N)ncnc21)N[C@H](C(=O)OCCCCC)C(C)C)C(C)C [Example 19, diamyl 2,2′-((((((S)-1-(6-amino-9H-purin-9-yl)-3-hydroxypropan-2-yl)oxy)methyl)phosphoryl)bis(azanediyl))(2S,2′S)-bis(3-methylbutanoate)]
[2]
  EC50: 1.5 nM
[3]
  EC50: 0.95 nM
[8]; [12]
  EC50: 100 nM
[9]; Human betaherpesvirus 5, HEL
  EC50: 72 nM
[4]
  EC50: 42.5 nM
[10]
  EC50: 13.5 nM
[5]
  Cytotoxicity MCC: ≥20
[6]
  CC50 at 3 days: 0.6 µM
[1]; Table 1
  Cytotoxicity HEL cells MCC: 8.57
[1]; Table 2
  Cytotoxicity HEL cells MCC: 8.57

## Nc1nc(O)c2ncn(COC(CO)CO)c2n1 [Ganciclovir, reference compound]
[8]; [11]
  EC50: 7400 nM
[1]; Table 1
  Cytotoxicity HEL cells MCC: >39.2
[1]; Table 2
  Cytotoxicity HEL cells MCC: >39.2

## Nc1nc2c(ncn2CCC(CO)CO)c(=O)[nH]1 [Penciclovir, reference compound]
[7]; Table 1
  CC50: > 395 µM
[1]; Table 1
  Cytotoxicity HEL cells MCC: >79.0
